Measured values as given in patent US12479821B2 (MBD CO., LTD., priority 2019, dated 2025).
Where two headings read alike, the source gives them in different places.

Biological target: T1, CYP4A (Homo sapiens, UniProt Q02928)
T1 construct: host or cells: bactosome, i.e. bacterial membrane preparation (own knowledge of the term)
T1 sequence (Q02928 5-519): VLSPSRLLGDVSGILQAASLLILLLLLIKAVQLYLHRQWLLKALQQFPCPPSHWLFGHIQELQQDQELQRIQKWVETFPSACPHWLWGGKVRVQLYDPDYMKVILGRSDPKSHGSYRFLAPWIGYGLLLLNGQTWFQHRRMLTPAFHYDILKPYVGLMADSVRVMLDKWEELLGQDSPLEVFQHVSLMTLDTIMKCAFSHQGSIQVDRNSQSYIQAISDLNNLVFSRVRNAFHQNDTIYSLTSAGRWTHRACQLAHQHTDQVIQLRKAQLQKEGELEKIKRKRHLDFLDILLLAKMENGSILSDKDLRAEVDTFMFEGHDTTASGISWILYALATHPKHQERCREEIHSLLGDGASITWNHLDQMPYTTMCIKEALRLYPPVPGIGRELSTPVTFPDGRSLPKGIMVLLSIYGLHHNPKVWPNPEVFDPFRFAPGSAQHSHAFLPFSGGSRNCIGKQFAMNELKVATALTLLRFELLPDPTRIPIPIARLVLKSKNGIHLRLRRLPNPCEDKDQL
Assay: CYP4A enzyme assay (Luciferin-ME luminescence, CYP4A bactosome)
Assay type: biochemical
Conditions: compound concentration 5 μM
How it was run: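 CYP4A bactosome preincubated 15 min at room temperature with compound (5 μM) in 100 mM KPO4, 0.1% BSA, 1 mM DTT. Luciferin-ME (5 mM) plus NADPH regeneration system added, 30 min at room temperature, then detection reagent for 15 min. Inhibition derived from luminescence versus controls.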

[1] = 75% or more, read-out: % Inhibition 75% or more
[2] = 25%-50%, read-out: % Inhibition 25%-50%
[3] = '50%-75%', read-out: % Inhibition 50%-75%

Row | inhibition at 5 µM [1] [%] | inhibition at 5 µM [2] [%] | SMILES | further results
1 | ≥ 75 |  | Cc1cc(N2CCN(C(=O)C3CCCN(S(=O)(=O)c4cccc([N+](=O)[O-])c4)C3)CC2)c2ccccc2n1 (stereo not shown) [Formula 28, (4-(2-methylquinolin-4-yl)piperazin-1-yl) (1-(3-nitrophenylsulfonyl)piperidin-3-yl) methanone] | 
2 | ≥ 75 |  | O=C(C1CCCN(S(=O)(=O)c2cccc(O)c2)C1)N1CCN(c2ccnc3ccccc23)CC1 (stereo not shown) [Formula 95, (1-(3-hydroxyphenylsulfonyl)piperidin-3-yl) (4-(quinolin-4-yl)piperazin-1-yl) methanone] | 

Second part, the molecule before the results:

Row | SMILES | inhibition at 5 µM [1] [%] | inhibition at 5 µM [2] [%] | further results
3 | O=C([C@@H]1CCCN(S(=O)(=O)c2ccc(Br)cc2)C1)N1CCN(c2ccnc3cc(F)ccc23)CC1 [Formula 57, (R)-(1-(4-bromophenylsulfonyl)piperidin-3-yl) (4-(7-fluoroquinolin-4-yl)piperazin-1-yl) methanone] | 0 |  | 
4 | O=C(C1CCCN(S(=O)(=O)c2ccccc2)C1)N1CCN(c2cc(C(F)(F)F)nc3ccccc23)CC1 (stereo not shown) [Formula 64, (1-(phenylsulfonyl)piperidin-3-yl) (4-(2-(trifluoromethyl)quinolin-4-yl)piperazin-1-yl)methanone] |  |  | inhibition at 5 µM (mark in column '25% or less', read-out: % Inhibition 25% or less): ≤ 25%
5 | Cc1ccc(S(=O)(=O)N2CCCC(C(=O)N3CCN(c4cc(C(F)(F)F)nc5ccccc45)CC3)C2)cc1 (stereo not shown) [Formula 65, (1-tosylpiperidin-3-yl) (4-(2-(trifluoromethyl)quinolin-4-yl)piperazin-1-yl) methanone] |  | 25 to 50 | 
6 | O=C(C1CCCN(S(=O)(=O)c2ccc(C(F)(F)F)cc2)C1)N1CCN(c2cc(C(F)(F)F)nc3ccccc23)CC1 (stereo not shown) [Formula 71, (1-(4-(trifluoromethyl)phenylsulfonyl)piperidin-3-yl) (4-(2-(trifluoromethyl)quinolin-4-yl)piperazin-1-yl) methanone] |  | 25 to 50 | 
7 | O=C(C1CCCN(S(=O)(=O)c2ccc(-c3cncnc3)cc2)C1)N1CCN(c2ccnc3cc(F)ccc23)CC1 (stereo not shown) [Formula 111, (4-(7-fluoroquinolin-4-yl)piperazin-1-yl) (1-(4-(pyrimidin-5-yl)phenylsulfonyl)piperidin-3-yl) methanone] | ≥ 75 |  | 
8 | COc1cccc(S(=O)(=O)N2CCCC(C(=O)N3CCN(c4cc(C)nc5ccccc45)CC3)C2)c1 (stereo not shown) [Formula 39, (1-(3-methoxyphenylsulfonyl)piperidin-3-yl) (4-(2-methylquinolin-4-yl)piperazin-1-yl) methanone] |  |  | inhibition at 5 µM [3]: 50 to 75%
9 | Cc1ccc(S(=O)(=O)N2CCCC(C(=O)N3CCN(c4ccnc5cc(Cl)ccc45)CC3)C2)cc1 (stereo not shown) [Formula 2, (4-(7-chloroquinolin-4-yl)piperazin-1-yl) (1-tosylpiperidin-3-yl) methanone] |  |  | inhibition at 5 µM [3]: 50 to 75%
10 | O=C(C1CCCN(S(=O)(=O)c2ccc(O)cc2)C1)N1CCN(c2cc(C(F)(F)F)nc3ccccc23)CC1 (stereo not shown) [Formula 68, (1-(4-hydroxyphenylsulfonyl)piperidin-3-yl) (4-(2-(trifluoromethyl)quinolin-4-yl)piperazin-1-yl) methanone] |  | 25 to 50 | 
